As usually defined, the IC50 is the concentration that inhibits the measured activity by half. A word on the melting point: it is the temperature, or range, at which the solid turns liquid.

In one data set the target is T1, COX-1 (Ovis aries, UniProt P05979).
T1 construct: purchased Cayman chemical, MI, USA
T1 sequence (P05979 25-600): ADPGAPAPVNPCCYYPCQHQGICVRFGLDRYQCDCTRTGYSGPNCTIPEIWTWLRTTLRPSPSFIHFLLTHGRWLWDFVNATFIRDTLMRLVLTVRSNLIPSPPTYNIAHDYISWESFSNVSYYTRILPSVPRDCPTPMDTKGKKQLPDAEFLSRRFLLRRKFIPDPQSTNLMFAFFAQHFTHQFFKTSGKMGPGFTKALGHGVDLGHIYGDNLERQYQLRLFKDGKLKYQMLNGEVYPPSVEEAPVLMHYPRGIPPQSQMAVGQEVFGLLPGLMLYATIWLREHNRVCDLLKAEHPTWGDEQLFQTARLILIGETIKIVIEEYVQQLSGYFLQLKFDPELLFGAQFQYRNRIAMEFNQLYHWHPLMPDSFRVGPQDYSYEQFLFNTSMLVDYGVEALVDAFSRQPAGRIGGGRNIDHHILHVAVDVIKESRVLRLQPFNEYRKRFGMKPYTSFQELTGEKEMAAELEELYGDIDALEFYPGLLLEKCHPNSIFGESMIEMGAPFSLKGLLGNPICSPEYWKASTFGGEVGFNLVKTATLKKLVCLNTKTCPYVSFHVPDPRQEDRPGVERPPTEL
The data set is described as follows: biochemical. As to conditions: ovine COX-1/COX-2 assay kit; mean of two determinations, deviation < 10% of mean. The protocol:
(§1) A group of 1,4-dihydropyridine derivativespossessing a MeSO2 at the para-position of the C-4 phenyl ring, alkyl groups(R1) at the C-2 position and alkyloxycarbonyl groups(COOR2) at the C-3 position were prepared and evaluated for their ability to inhibit COX-1 and COX-2 using chemiluminescent kit (Cayman chemical, MI, USA) according to our previously reported method ([14]).

The target of a further data set is T2, COX-2 (Ovis aries, UniProt P79208).
T2 construct: purchased Cayman chemical, MI, USA
T2 sequence (P79208 17-603): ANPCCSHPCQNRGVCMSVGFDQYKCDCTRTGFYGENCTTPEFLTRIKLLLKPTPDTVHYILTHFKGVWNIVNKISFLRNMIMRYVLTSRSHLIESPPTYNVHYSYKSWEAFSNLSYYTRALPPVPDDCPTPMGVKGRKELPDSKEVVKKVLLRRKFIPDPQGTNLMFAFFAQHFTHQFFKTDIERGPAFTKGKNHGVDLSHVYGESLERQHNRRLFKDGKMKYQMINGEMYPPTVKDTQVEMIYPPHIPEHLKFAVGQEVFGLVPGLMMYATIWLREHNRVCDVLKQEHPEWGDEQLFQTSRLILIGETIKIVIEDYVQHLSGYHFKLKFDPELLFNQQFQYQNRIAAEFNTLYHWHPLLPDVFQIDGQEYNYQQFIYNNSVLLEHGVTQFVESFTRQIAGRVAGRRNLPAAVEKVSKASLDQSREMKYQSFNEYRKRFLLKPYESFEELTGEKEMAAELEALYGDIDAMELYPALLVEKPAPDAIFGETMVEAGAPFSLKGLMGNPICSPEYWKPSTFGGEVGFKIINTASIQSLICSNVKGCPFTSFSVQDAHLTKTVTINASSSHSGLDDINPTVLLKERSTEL
Description: biochemical. It is filed as biochemical. As to conditions: for COX-2 S.I. (in-vitro COX-2 selectivity index): COX-1 IC50/COX-2 IC50; for IC50: ovine COX-1/COX-2 assay kit, mean of two determinations, deviation < 10% of mean; for COX-2 inhibitory activity relative to compound 5e (in words): larger groups (propyl, phenyl) at C-2 position of compound 5e. The protocol:
as §1

Regarding `CC1=C(C(=O)OC(C)(C)C)C(c2ccc(S(C)(=O)=O)cc2)C2=C(CC(C)(C)CC2=O)N1` (stereo not drawn) [Compound 5h, t-Butyl-1,4,5,6,7,8-hexahydro-2,7,7-trimethyl-4-(4-methanesulfonyl-phenyl)-5-oxo-quinoline-3-carboxylate], the melting point was 163 to 164 °C. Moreover, the IC50 against COX-1 turned out to be 25.5 µM. In addition, on COX-2, the “COX-2 S.I. (in-vitro COX-2 selectivity index)” value is 63.7 and the IC50 was 400 nM.
As for `COC(=O)C1=C(C(C)C)NC2=C(C(=O)CC(C)(C)C2)C1c1ccc(S(C)(=O)=O)cc1` (stereo not drawn) [Compound 5d], the IC50 is 27.6 µM against COX-1 and 620 nM against COX-2.
For the compound `COC(=O)C1=C(N)NC2=C(C(=O)CC(C)(C)C2)C1c1ccc(S(C)(=O)=O)cc1` (stereo not drawn) [Compound 5b, Methyl-2-amino-1,4,5,6,7,8-hexahydro-7,7-dimethyl-4-(4-(methylsulfonyl)phenyl)-5-oxo quinolone-3-carboxylate], the midpoint of inhibition at COX-1, the IC50, lay at 31 µM. Further, at COX-2, the “COX-2 S.I. (in-vitro COX-2 selectivity index)” value came to 70.4 and it took 440 nM to reach half-maximal inhibition (IC50).
In the case of `CCOC(=O)C1=C(c2ccccc2)NC2=C(C(=O)CC(C)(C)C2)C1c1ccc(S(C)(=O)=O)cc1` (stereo not drawn) [Compound 5g, Ethyl-1,4,5,6,7,8-hexahydro-7,7-dimethyl-4-(4-(methylsulfonyl)phenyl)-5-oxo-2-phenylquinoline-3-carboxylate], the melting point was 187.9 to 189 °C. The compound further displayed an IC50 against COX-1 of 46.1 µM. Further, on COX-2, the “COX-2 inhibitory activity relative to compound 5e (in words)” value is “significant loss of activities” and the IC50 is more than 100000 nM.
Compound `COC(=O)C1=C(C)NC2=C(C(=O)CC(C)(C)C2)C1c1ccc(S(C)(=O)=O)cc1` (stereo not drawn) [Compound 5a, Methyl-1,4,5,6,7,8-hexahydro-2,7,7-trimethyl-4-(4-(methylsulfonyl)phenyl)-5-oxoquinoline-3-carboxylate] displayed a melting point of 244 to 245 °C. Moreover, the IC50 against COX-1 was determined as 30.2 µM. Also, on COX-2, the “COX-2 S.I. (in-vitro COX-2 selectivity index)” value turned out to be 62.9 and the IC50 turned out to be 480 nM.
`CCCC1=C(C(=O)OCC)C(c2ccc(S(C)(=O)=O)cc2)C2=C(CC(C)(C)CC2=O)N1` (stereo not drawn) [Compound 5f, Ethyl-1,4,5,6,7,8-hexahydro-7,7-dimethyl-4-(4-(methylsulfonyl)phenyl)-5-oxo-2-propylquinoline-3-carboxylate] yielded a melting point of 163 to 164 °C. The compound further had an IC50 on COX-1 of 25.2 µM. Moreover, at COX-2, the “COX-2 S.I. (in-vitro COX-2 selectivity index)” value came to 18.2, the “COX-2 inhibitory activity relative to compound 5e (in words)” value was “significant loss of activities” and the IC50 was determined as 1380 nM.
In turn, `CCOC(=O)C1=C(C)NC2=C(C(=O)CC(C)(C)C2)C1c1ccc(S(C)(=O)=O)cc1` (stereo not drawn) [Compound 5e, Ethyl-1,4,5,6,7,8-hexahydro-2,7,7-trimethyl-4-(4-(methylsulfonyl)phenyl)-5-oxoquinoline-3-carboxylate] came in with a melting point of 180.7 to 182.3 °C. The same compound yielded an IC50 at COX-1 of 27.6 µM. Besides, on COX-2, the “COX-2 S.I. (in-vitro COX-2 selectivity index)” value is listed as 92.0 and the IC50 came out at 300 nM.
In the same order, the values of `CCC1=C(C(=O)OC)C(c2ccc(S(C)(=O)=O)cc2)C2=C(CC(C)(C)CC2=O)N1` (stereo not drawn) [Compound 5c, Methyl-2-ethyl-1,4,5,6,7,8-hexahydro-7,7-dimethyl-4-(4-(methylsulfonyl)phenyl)-5-oxoquinoline-3-carboxylate] are 186.5 to 188 °C, 30.7 µM, 52.1 and 590 nM.
Compound `CC1=C(C(=O)OCc2ccccc2)C(c2ccc(S(C)(=O)=O)cc2)C2=C(CC(C)(C)CC2=O)N1` (stereo not drawn) [Compound 5i] showed a melting point of 136.9 to 138.9 °C. The same compound came in with an IC50 against COX-1 of 22.9 µM. At COX-2, this compound gave an IC50 of more than 100000 nM.

The values above are taken from article PMC4673936, “Design, Synthesis and Biological Evaluation of New 1, 4-Dihydropyridine (DHP) Derivatives as Selective Cyclooxygenase-2 Inhibitors” (Iranian Journal of Pharmaceutical Research : IJPR, 2015).
